# Experimental data: US20110251158A1, “FULLERENE THERAPIES FOR INFLAMMATION AND INHIBITION OF BUILD-UP OF ARTERIAL PLAQUE” (Luna Innovations Incorporated, priority 2008, published 2011)
# Tests used:
# FcεRI activated genes = assay: Gene microarray of FcεRI-activated MC; assay type: cell-based, human
# Procedure: (§1) Mast cells (1×10^7 cell/condition; each condition performed in triplicate) were incubated with or without fullerene derivatives as above and incubated with or without anti-FcεRI antibodies for 10 minutes, supernatants were removed (to remove pre-formed mediators), and fresh warm medium containing anti-FcεRI antibodies (14 ml) added for 2 hours. Cells were centrifuged, the supernatant and the pellet immediately frozen and microarray performed using the Human Whole Genome OneArray™ gene expression profiling service (Phalanx Biotech Group). Separate samples, assayed in parallel were lysed and protein expression analyzed by Western blotting or flow cytometry (CD45) as described in Kepley, C. L., Pfeiffer, J., Wilson, B. W., Schwartz, L. B., and Oliver, J. M. J. Leukocyte Biol. 64, 474-483 (1998).
# For microarray RNA was isolated using the Ambion MessageAmp aRNA kit; all samples passed the internal quality control checks. For hybridization each sample was run in triplicate. Optical density was measured by NanoDrop ND-1000. The ratio of absorbance at 260 nm and 280 nm provides an estimate of RNA purity. […] The reactive amino group of 5-(3-aminoallyl)-UTP/5-(3-aminoallyl)-dUTP was used to conjugate the purified aRNA/cDNA with the NHS-CyDye. Labeling efficiency was calculated by the concentration of CyDye and aRNA/cDNA which was above 10. For hybridization 10 μg Cy5-labeled aRNA was utilized by the Phalanx Hybridization Protocol Array Version HOA 4.3.
# Pearson correlation tables (R values) for each technical repeat were calculated from raw log 2 intensity (R) and normalized log 2 intensity (N) values and compared to each other. Only probes with P value (detected) less than 0.05 were included in the calculation. […] Greater than 95% of the samples had R values of 0.8 or greater indicating strong correlation between the two parameters.
# (§2) In order to examine the genes most affected by fullerene derivative preincubation the resulting values were sorted and filtered the following way. First, the mean (±SD) of the six values from each condition for each of the 30,970 genes was calculated. […]
# [1] = system: Peripheral blood basophils (PBB); assay: Anti-IgE-induced IL-13 secretion from PBB (ELISA); assay type: cell-based, human; details: for Mean % Inhibition of IL-13 Secretion: 15 ng/ml anti-IgE
# Procedure: PBB were obtained from two sources: donors recruited under an IRB-approved protocol after informed consent or from leukopheresis packs obtained from the Johns Hopkins Hemapheresis Center. PBB were purified to ≧99% purity as described in Vonakis, B. M., Gibbons S Jr, Sora, R., Langdon, J. M., and MacDonald, S. M. J. Allergy Clin. Immunol. 108, 822-831 (2001), and Miura, K., Saini, S. S., Gauvreau, G., and MacGlashan, D. W., Jr. J. Immunol. 167, 2282-2291 (2001). Purified PBB were incubated overnight (20 hours) with a fullerene derivative (5 μg/ml) or vehicle control and a minimal (non-stimulatory) concentration of IL-3 (2 pg/ml) to prevent apoptosis. The next day, cells were washed and aliquoted for the histamine release assay by treatment with 0.1 mg/ml of goat polyclonal anti-IgE, buffer alone (spontaneous release) or perchloric acid (total histamine determination). Histamine was quantified in cell free supernatants using automated fluorimetry in duplicate. In a second set of experiments the two fullerene derivatives (at 5 μg/ml) were incubated with PBB for 20 hours, washed cells stimulated with 15 ng/ml anti-IgE for 18 hours in duplicate and supernatants collected for quantification of IL-13 by in-house ELISA. The optimal doses of anti-IgE are chosen for activation of PBB.
# [2] = system: E74-like factor 2 (ELF-2); assay: ELF-2 gene expression (microarray) in MC; assay type: cell-based, human; details: gene level
# Procedure: as §1
# as §2, with “calculated. Second, only normalized value intensities of >100 were included so that follow up detection of protein levels would be more likely to be successful.” for “calculated.”
# [3] = system: PI3-kinase phosphorylation; assay: Western blotting of FcεRI-activated phospho-signaling in MC: PI3-kinase; assay type: cell-based, human; details: 10 μg/mL overnight
# Procedure: Cell lysate preparation and Western blotting were performed using a protocol optimized for extracting phospho-proteins from human MC. Tkaczyk, C., Metcalfe, D. D., and Gilfillan, A. M. J. Immunol. Methods 268, 239-243 (2002). Following activation, cells were lysed directly in boiling denaturing sample buffer consisting of tris-buffered saline with triton-X-100 (0.5%) and protease and phosphatase inhibitors. The cell suspension was then passed through a 20-gauge needle, boiled, and centrifuged to remove cell debris. Proteins were separated on 8% or 10% NuPage Tris-Bis gels using Licor running buffer. Western blotting was performed using Licor blocking buffer and IR800 and IR700 anti-rabbit F(ab)2 secondary Abs (1:1000). Primary Abs were from Cell Signaling Technologies or Santa Cruz unless otherwise noted. Band intensities were captured using the Odyssey Imaging System and bands quantified by measuring the number of pixels in each band using a box drawn for the same area of measurement for each separate blot. The band intensity was then normalized for loading by dividing the number of pixels in each band with the housekeeping band intensity (β-actin) performed on the same blot.
# MC were pretreated with Inos or TGA (10 μg/mL) overnight at 37° C./6% CO2. The next day washed cells were activated with or without anti-FcεRI (1 μg/mL) for the indicated times and lysed using protocols described above. Two separate 10% Tris-Glycine gels were used for sodium dodecyl sulfate polyacrylamide gel electrophoresis (SDS-PAGE) and Western blotting performed with the indicated phosphorylation-specific (i.e., phosph-Lyn) antibodies. To ensure equal loading, an antiactin antibody was used in parallel. The intensity of each band was detected and quantified using an Odyssey imaging system. Band intensities are presented as a ratio compared to antiactin band intensities probed in the same lane and presented for each time point in the colored graphs on the right side. Results are representative of three separate experiments. […]
# mice = assay: Liver toxicity: serum ALT and AST activity after FD injection; assay type: in vivo; details: tail vein injection
# Procedure: To examine potential toxicity, alanine aminotranferease (ALT) and aspartate aminotransferase (AST) were measured in serum. These enzymes leak out into the general circulation when the liver is injured. Mice were treated with or without 1000 μg/100 μl (50 times more than used for the in vivo study) of TGA or Inos by tail vein injection and i.p. After two and 14 days mice were sacrificed and blood, obtained by cardiac puncture. ALT and AST activity were measured as described in Booth, G., Newham, P., Barlow, R., Raines, S., Zheng, B., and Han, S. Autoimmunity 41, 512-521 (2008). Data is presented as an average of 4 (Untreated) or 4 (Treated) mice±Standard Deviation.
substance,measurement,setting,value
C70-tetraglycolic acid [TGA],genes whose FcεRI-induced activation was reduced,FcεRI activated genes,over 1000
same,genes decreased at least 20% compared to non treated cells,FcεRI activated genes; 2 hours FcεRI activation,"2,603"
same,genes with greater than 50% inhibition,FcεRI activated genes; 2 hours FcεRI activation,515
same,"FD + anti-IgE (mean ± SEM, ng/ml), IL-13","[1]; 5 μg/ml FD, 20 hours, 15 ng/ml anti-IgE 18 hours",79.3 ± 20.9 ng/mL
same,Mean % Inhibition of IL-13 Secretion,"[1]; 5 μg/ml FD, listed as C70-TGA",52.4%
same,Mean % Inhibition of IL-13 Secretion,"[1]; 5 μg/ml FD, listed as C70-tetraglucolate",significant inhibition
same,IC50 (IL-13-cytokine production),"[1]; PBB, maximum inhibition set to 100%",10.6 µg/mL
same,maximal inhibition of anti-IgE stimulated IL-13 secretion,"[1]; detected at 0.5 μg/ml, mean, n=2",37.4%
same,ELF-2 downregulated,[2],47%
same,reduced PI3-kinase phosphorylation,[3]; 3 minutes,15%
same,reduced PI3-kinase phosphorylation,[3]; 5 minutes,35%
same,reduced PI3-kinase phosphorylation,[3]; 10 minutes,50%
same,Alanine aminotransferase (ALT) Activity,mice; Day 2,29.2
same,Aspartate aminotransferase (AST) Activity,mice; Day 2,8.5
same,Alanine aminotransferase (ALT) Activity,mice; Day 14,36.7
same,Aspartate aminotransferase (AST) Activity,mice; Day 14,29.8
